Data published in patent US7534871B2, “Preparation and use of carbohydrate-based bicyclic ring structures with antimicrobial and cytostatic activity” (Kemin Pharma B.V.B.A., priority 2004, dated 2009).
Converted amounts (≈) assume the structure as drawn.

What was measured:
[1] = tested on: E. faecalis ATTC29212 LMG 8222; experiment: Anti-bacterial activity, Bioscreen C growth curve: E. faecalis; type: cell-based; details: Enterococcus faecalis, LMG8222, 35° C., 16 hours, negative control = 100, read-out: % of growth at 25 PPM compared to the negative control, E. faecalis ATTC29212 LMG 8222
Method: (§1) For the determination of the anti-bacterial and anti-fungal activity the Bioscreen C Analyser Labsystems, Finland, was used. This is an automated reader-incubator. It measures growth continuously by vertical photometry (optical density), processes the data and provides a print out of the results. The area under the growth curve is automatically determined via the Biolink software.
(§2) The inoculum size of the bacteria is standardized to approximately 5×10^5 CFU/ml.
(§3) For bacteria, the 100-honey-well plates containing test chemical, Mueller-Hinton broth and inoculum (=sample) are incubated at 35° C. for 16 hours. Also wells without inoculum are incubated (=blanco). Yeasts are incubated 35° C. for 24 hours in RPMI 1640+MOPS buffer at 165 mM. Moulds also in RPMI 1640+MOPS buffer at 165 mM are incubated 25° C. for 5 days. All micro-organisms are screened against a known concentration of the reference antibiotics or antimycotics such as vancomycin, penicillin G, gentamicin or amphotericin B. The growth curve and the area under the growth curve can be determined using the Biolink software; this is illustrated in FIG. 1.
(§4) The area of the blanco is subtracted from the area of the sample, this number (delta) gives us an indication of the biological activity of the molecules tested and can be expressed as a % of growth at a specific dose compared to a negative control that has a value of 100, illustrated in FIG. 2. Screening of each dose of a specific compound is repeated 5 times. The dose used for all new molecules in all tests is 25 PPM or 25 μg/ml.
(§5) In Table 4 the results of the anti-bacterial activity is given for the new molecules. The micro-organisms used are Staphylococcus aureus, MRSA, VRE, Enterococcus faecalis, Salmonella typhimurium and Pseudomonas aeruginosa.

VRE ATCC700221 = experiment: Anti-bacterial activity, Bioscreen C growth curve: VRE; type: cell-based, vancomycin-resistant Enterococcus (VRE); details: Enterococcus, 35° C., 16 hours, negative control = 100, read-out: % of growth at 25 PPM compared to the negative control, VRE ATCC700221
Method: as §1, §2, §3, §4, §5

[2] = tested on: S. aureus ATTC29213 LMG10147; experiment: Anti-bacterial activity, Bioscreen C growth curve: S. aureus; type: cell-based; details: Staphylococcus aureus, 35° C., 16 hours, negative control = 100, read-out: % of growth at 25 PPM compared to the negative control, S. aureus ATTC29213 LMG10147
Method: as §1, §2, §3, §4, §5

MRSA ATCC33591 = experiment: Anti-bacterial activity, Bioscreen C growth curve: MRSA; type: cell-based, methicillin-resistant Staphylococcus aureus (MRSA); details: for activity at 25 ppm: Staphylococcus aureus, ATCC 33591 / LMG10147 / MRSA, 35° C., 16 hours, negative control = 100, read-out: % of growth at 25 PPM compared to the negative control, MRSA ATCC33591 LMG10147
Method: as §1, §2, §3, §4, §5

[3] = tested on: P. aeruginosa ATCC27853 LMG16217; experiment: Anti-bacterial activity, Bioscreen C growth curve: P. aeruginosa; type: cell-based, Pseudomonas aeruginosa; details: Pseudomonas aeruginosa; 25 PPM; 35° C., 16 hours; negative control = 100; read-out: % of growth at 25 PPM compared to the negative control, P. aeruginosa ATCC27853 LMG16217
Method: as §1, §2, §3, §4, §5

[4] = tested on: S. typhimurium ATTC700408; experiment: Anti-bacterial activity, Bioscreen C growth curve: S. typhimurium; type: cell-based; details: Salmonella enterica, LMG16217 / TYPHIMURIUM, 35° C., 16 hours, negative control = 100, read-out: % of growth at 25 PPM compared to the negative control, S. typhimurium ATTC700408 LMG16217
Method: as §1, §2, §3, §4, §5

[5] = tested on: Candida albicans IHEM 10284 - ATCC 24433; experiment: Anti-fungal activity, Bioscreen C growth curve: Candida albicans (yeast); type: cell-based; details: Candida albicans, ATCC24433; 25 PPM; 35° C., 24 hours; negative control = 100; read-out: % of growth at a dose of 25 PPM compared to the negative control, Candida albicans IHEM 10284 - ATCC 24433
Method: as §1
The inoculum size of the yeast is standardized to 0.5-2.5×10^3 CFU/ml.
as §3, §4
(§6) In Table 5 the anti-fungal activity is given for the new molecules. The micro-organisms used were Candida albicans (a typical yeast) and Microsporum gypseum (a typical mold).
as §1, with “Also for” for “For”, “the” for “the anti-bacterial and”, “Labsystems Oy, Finland” for “Labsystems, Finland,”, “used.” for “used. This is an automated reader-incubator.”
(§7) The inoculum size of the yeast is standardized to 0.5-2.5×10^3 CFU/ml. The inoculum size of the mould is standardized to 0.4-5.0×10^4 CFU/ml. Yeasts are incubated 35° C. for 24 hours in RPMI 1640+MOPS buffer at 165 mM. Moulds also in RPMI 1640+MOPS buffer at 165 mM are incubated 25° C. for 5 days.
(§8) As a control, all micro-organisms are screened against some reference antibiotics with known MIC. Screening of each dose of a specific compound is repeated 5 times.

[6] = tested on: Microsporum gypseum IHEM 3999 - ATCC 14683; experiment: Anti-fungal activity, Bioscreen C growth curve: Microsporum gypseum (mold); type: cell-based; details: Nannizzia gypsea, ATCC14683, 120 h; 25 PPM; 25° C., 5 days; negative control = 100; read-out: % of growth at a dose of 25 PPM compared to the negative control, Microsporum gypseum IHEM 3999 - ATCC 14683
Method: as §1
The inoculum size of the mould is standardized to 0.4-5.0×10^4 CFU/ml.
as §3, §4, §6
as §1, with “Also for” for “For”, “the” for “the anti-bacterial and”, “Labsystems Oy, Finland” for “Labsystems, Finland,”, “used.” for “used. This is an automated reader-incubator.”
as §7, §8

HSV-1 (KOS) = experiment: Anti-viral activity: HSV-1-induced cytopathicity in human embryo fibroblast E6SM cell cultures; type: cell-based, herpes simplex virus (HSV); details: Human alphaherpesvirus 1, 50%
HSV-2 (G) = experiment: Anti-viral activity: HSV-2-induced cytopathicity in human embryo fibroblast E6SM cell cultures; type: cell-based, herpes simplex virus (HSV); details: Human alphaherpesvirus 2, 50%
VV = experiment: microbe, parasite or virus in culture; type: cell-based; details: Orthopoxvirus vaccinia, E6SM, read-out: EC50 VV (E6SM)
VZV OKA = experiment: microbe, parasite or virus in culture; type: cell-based, varicella zoster virus (VZV); details: Human alphaherpesvirus 3, HEL, read-out: EC50 VZV (HEL) OKA
VZV YS = experiment: Anti-viral activity: VZV-induced plaque formation in HEL cell cultures, YS strain; type: cell-based, varicella zoster virus (VZV); details: Human alphaherpesvirus 3, VZV-induced plaque formation in human embryonic lung HEL cell cultures, 50%
CMV AD-169 strain = experiment: Anti-CMV activity: plaque reduction in HEL cells, AD-169 strain; type: cell-based, human cytomegalovirus (CMV); details: Human betaherpesvirus 5, AD169, HEL; Table 6; reduce virus plaque formation by 50%; virus input 100 PFU; read-out: Anti-CMV activity IC50 AD-169 strain
CMV Davis strain = experiment: Anti-CMV activity: plaque reduction in HEL cells, Davis strain; type: cell-based, human cytomegalovirus (CMV); details: Human betaherpesvirus 5, HEL; Table 6; reduce virus plaque formation by 50%; virus input 100 PFU; read-out: Anti-CMV activity IC50 Davis strain
[7] = tested on: murine leukemia cells (L1210/0); experiment: Cytostatic activity: inhibition of proliferation of L1210/0 cells; type: cell-based; details: Mus musculus, L1210/0; 50% inhibitory concentration, cell proliferation; read-out: IC50 L1210/0
Method: (§9) The compounds were tested for anti-tumor activity via the inhibitory effects on the proliferation of murine leukemia cells (L1210/0), murine mammary carcinoma cells (FM3A), human T-lymphocyte cells (Molt4/C8, CEM/0) and human cervix carcinoma cells (HeLa).

[8] = tested on: murine mammary carcinoma cells (FM3A); experiment: Cytostatic activity: inhibition of proliferation of FM3A cells; type: cell-based; details: Mus musculus, 50% inhibitory concentration, cell proliferation, read-out: IC50 FM3A/0
Method: as §9

[9] = tested on: human T-lymphocyte cells (Molt4/C8); experiment: Cytostatic activity: inhibition of proliferation of Molt4/C8 cells; type: cell-based; details: Molt4/C8, 50% inhibitory concentration, cell proliferation, read-out: IC50 Molt4/C8
Method: as §9

[10] = tested on: human T-lymphocyte cells (CEM/0); experiment: Cytostatic activity: inhibition of proliferation of CEM/0 cells; type: cell-based; details: CCRF-CEM, 50% inhibitory concentration, cell proliferation, read-out: IC50 CEM/0
Method: as §9

HEL cells = experiment: Cytotoxicity: alteration of cell morphology (MCC); type: cell-based, human; details: minimum cytotoxic concentration that causes a microscopically detectable alteration of cell morphology
[11] = Cytotoxicity: inhibition of HEL cell growth (CC50); type: cell-based; details: human; concentration required to reduce cell growth by 50%; HEL cells, three days
Method: The medium was then replaced by MEM containing various concentrations of the test compound. After three days incubation at 37° C., when the cell monolayer was 70% confluent, the cell number was determined with the Coulter counter. The minimum cytotoxic concentration was defined as the concentration required to reduce cell growth by 50%.

Row | Compound | activity at 25 ppm [1] [%] | activity at 25 ppm (VRE ATCC700221) [%] | activity at 25 ppm [2] [%] | activity at 25 ppm (MRSA ATCC33591) [%] | activity at 25 ppm [3] [%] | activity at 25 ppm [4] [%] | activity at 25 ppm [5] [%] | activity at 25 ppm [6] [%] | other results
1 | CO[C@@H]1[C@@H](OC)[C@H](Sc2ccccc2)O[C@@H]2CNC(=O)CCC=CCCC(=O)O[C@@H]12 [KPE00001041] | 68.2 | 93 | 56.7 | 75.6 | 83.3 | 96.6 | 78.1 | 81 | anti-bacterial activity against gram-positive bacteria including MRSA, in words (MRSA ATCC33591; conclusion on Table 4): good anti-bacterial activity
2 | CO[C@@H]1[C@@H](OC)[C@H](Sc2ccccc2)O[C@@H]2CNC(=O)CC/C=C/CCCO[C@@H]12 [KPE00001042] | 93.3 | 96 | 97 | 104 | 94.7 | 98 | 90.3 | 79 | –
3 | c1ccc(CO[C@@H]2[C@@H](OCc3ccccc3)[C@H](Sc3ccccc3)O[C@@H]3CO[C@@H](c4ccccc4)O[C@@H]23)cc1 [KPE00001044] | – | – | – | – | – | – | – | – | EC50 (HSV-1 (KOS)): > 3.2 µg/mL; EC50 (HSV-2 (G)): > 3.2 µg/mL; EC50 (VV): > 3.2 µg/mL; EC50 (VZV OKA): > 2 µg/mL; EC50 (VZV YS): > 2 µg/mL; IC50 (CMV AD-169 strain): > 2 µg/mL; IC50 (CMV Davis strain): > 2 µg/mL; IC50 [7]: > 200 µg/mL; IC50 [8]: 130 ± 61 µg/mL (≈ 240 µM); IC50 [9]: > 200 µg/mL; IC50 [10]: > 200 µg/mL; Cytotoxicity Cell morphology (MCC) (HEL cells): 5 μg/ml; CC50 at 3 days [11]: > 50 µg/mL
4 | CO[C@H]1[C@H](OC)[C@H](OC)COC/C=C/COC[C@H]2OC[C@H](OC)[C@@H](OC)[C@@H]2OC(=O)NC[C@@H]1OC [KPE00001056] | 111 | 91 | 105 | 113 | 106 | 93.7 | 101 | 77 | –
